This is an account of results in patent US5047419A, “Photodynamic therapy of glioma or mammary carcinoma using seleno- or telluropyrylium salts” (Eastman Kodak Company, priority 1988, dated 1991).

A short description of data set [1]: Absorption maxima (λmax) of chalcogenopyrylium dyes. In kind it is physicochemical. An excerpt:
(§1) The ability of the dyes of this invention to function as a cancer-treating agent is in part a reflection of the ability of the dye to generate singlet oxygen in air-saturated solution. (As used herein, "air-saturated solution" means a solution of dye exposed to the atmosphere.) In studying a variety of chalcogenopyrylium dyes, only those dyes containing a selenium or tellurium atom show any appreciable generation of singlet oxygen upon irradiation. Fortuitously, selenopyrylium and telluropyrylium dyes have absorption maxima that are shifted to the red relative to their pyrylium and thiopyrylium analogues. That is, not only are these dyes effective in killing cancer cells because of their high quantum efficiency, but also they generally operate at the most preferred wavelengths, namely those of 700 nm or longer. Table III contains examples of chalcogenopyrylium dyes, their quantum efficiencies for singlet oxygen generation, and their absorption maxima. (In this Table, Ph=Phenyl, Me=Methyl, and t-Bu=tertiary butyl.)

Data set [2] in a line: Quantum efficiency of singlet oxygen generation in air-saturated solution. The format is physicochemical.
Description: as §1

A further data set deals with RT-1 glioma cells. As to the kind of experiment: Survival study of rats implanted with RT-1 glioma cells. The format is in vivo, rat. Conditions: for Mean Survival Time: 2.5 μmol femoral artery. The procedure:
A survival study was conducted using Dye 1 with 400 g rats implanted with RT-1 glioma cells at day 0 and treated with 2.5 μmol of dye delivered by femoral artery injection on day 12. The treated animals were irradiated one hour post injection using a quartz fiber optic with a diffusion tip with the dye laser described earlier as the light source. Total irradiation energy was 50 J cm^-2 at 785 nm. Three control groups were used: untreated animals, animals treated with dye only, and animals treated with light only. [The number of rats per group were: 10 for laser and dye treatment, 6 for control (no treatment), 14 for dye only and 6 for laser only.] Mean survival time data are compiled in Table VIII.

Data set [3] in a line: Distribution of Dye 1 in organ tissues of glioma (RT-1) bearing rats. The format is in vivo, rat. The procedure: Dye 1 of Table 1 was delivered to glioma sites in rat brains, such sites having been achieved by implanting RT-1 rat glioma cancer cells into the brains of twenty-four 400 g rats. Stock solutions of Dye 1 at 1 mM concentration were prepared by dissolving the dye in a minimal amount of 95% ethanol and diluting with phosphate buffered saline to 1 mM. RT-1 glioma cells were injected into the cortex of the rats at day 0. Treatment with the dye was done at day 12. A quantity of the stock solution sufficient to deliver 1.5 mg (2.5 μmol) of Dye 1 per rat (approximately2 mL) was delivered by femoral artery or carotid artery injection. The animals were sacrificed at the indicated times, the indicated tissues were removed, and frozen until the amount of dye was quantified. The dye content of the indicated tissues was examined spectroscopically by homogenizing the tissues, doing a lipid extraction of the homogenate, and measuring the optical density of the extract at a constant volume at the wavelength of the dye. Alternatively, a tritium labeled sample of Dye 1 was employed in the injection and the tissue homogenate was placed directly in a scintillation vial. The dye content was then measured by tritium count. […] (The values listed at times of 0.25 and 1.0 h after injection are comparative examples only, since there is either too high a concentration present in the brain, or too little in the tumor.)

Data set [4] can be described thus: Distribution of Dye 5 in organ tissues of rats bearing an implanted mammarian tumor. The format is in vivo, rat. Conditions: peritoneum, prep L, optical density.
Where [5] appears, read: carotid artery, 0.33 h, prep H, tritium counts.
[6] abbreviates: femoral artery, 0.25 h, prep D, tritium counts.
Setting [7] is: femoral artery, 0.50 h, prep D, tritium counts.
Where [8] appears, read: femoral artery, 1.0 h, prep (L), optical density (B).
The mark [9] stands for this setting: femoral artery, 1.0 h, prep D, tritium counts.

`CC(C)(C)C1=CC(=CC=Cc2cc(C(C)(C)C)[s+]c(C(C)(C)C)c2)C=C(C(C)(C)C)S1.F[P-](F)(F)(F)(F)F` [C.E. 1, 2,6-Di-t-butyl-4-[3-(2,6-di-t-butyl-4H-thiopyran-4-ylidene)-1-propen-1-yl]thiopyrylium hexafluorophosphate, reference compound]: the “Absorption maximum λmax” value in data set [1] (H2O) is reported as 660 nm. The “Quantum efficiency of singlet oxygen generation Φ(1O2)” value (“Quantum efficiency” for short) in data set [2] (air-saturated solution) is at most 0.001.
In the same order, the values of `CC(C)(C)C1=CC(=CC=Cc2cc(C(C)(C)C)[o+]c(C(C)(C)C)c2)C=C(C(C)(C)C)S1.F[P-](F)(F)(F)(F)F` [C.E. 2, 2,6-Di-t-butyl-4-[3-(2,6-di-t-butyl-4H-thiopyran-4-ylidene)-1-propen-1-yl]pyrylium hexafluorophosphate, reference compound] are 630 nm and at most 0.001.
On to `CC(C)(C)C1=CC(=CC=Cc2cc(C(C)(C)C)[se+]c(C(C)(C)C)c2)C=C(C(C)(C)C)[Te]1.[Cl-]` [Dye 1, 2,6-Di-t-butyl-4-[3-(2,6-di-t-butyl-4H-telluropyran-4-ylidene)-1-propen-1-yl]selenopyrylium chloride], for which, in the data set with RT-1 glioma cells (Dye 1 and light), the “survival relative to animals in the control groups” value is reported as “prolonged survival”. In addition, the “Proportion of Animals Surviving” value in the data set on RT-1 glioma cells (Dye Only, day ≥15) was found to be 0.50; with RT-1 glioma cells (Dye Only, day ≥19), 0.43; with RT-1 glioma cells (Dye Only, day ≥22) it was 0.43; with RT-1 glioma cells (Dye Only, day ≥26) it was 0.43; with RT-1 glioma cells (Dye Only, day ≥33), 0.43; in the data set on RT-1 glioma cells (Dye Only, day ≥40), 0.43. For the same molecule, the “Proportion of Animals Surviving” value in the data set with RT-1 glioma cells (Dye Only, day ≥47) is given as 0.00; in the data set on RT-1 glioma cells (Laser + Dye, day ≥15), 0.70; in the data set with RT-1 glioma cells (Laser + Dye, day ≥19), 0.70; with RT-1 glioma cells (Laser + Dye, day ≥22), 0.70; in the data set with RT-1 glioma cells (Laser + Dye, day ≥26), 0.60; with RT-1 glioma cells (Laser + Dye, day ≥33), 0.50. Further, the “Proportion of Animals Surviving” value in the data set on RT-1 glioma cells (Laser + Dye, day ≥40) stood at 0.50; in the data set with RT-1 glioma cells (Laser + Dye, day ≥47) it was 0.30. Further, the “Mean Survival Time” value came out at 27.9 days in the data set with RT-1 glioma cells (Dye Only) and 32.8 days in the data set with RT-1 glioma cells (Laser + Dye, 50 J cm^-2 at 785 nm). For the same molecule, in the data set on RT-1 glioma cells (fully treated (laser + dye), from day 47 on), the animals still alive is on record as 30%. Besides, the “nmol Dye 1/g of tissue, Brain” value in data set [3] (setting [5]) is reported as 0.9 nmol Dye 1/g of tissue; in data set [3] (setting [6]) it was 46 nmol Dye 1/g of tissue; in data set [3] (setting [7]) it was 18.0 nmol Dye 1/g of tissue; in data set [3] (setting [9]), 4.7 nmol Dye 1/g of tissue. Besides, the results for the “nmol Dye 1/g of tissue, Tumor” value in data set [3] (setting [5]), in data set [3] (setting [6]) and in data set [3] (setting [7]) were 16.0 nmol Dye 1/g of tissue, 45 nmol Dye 1/g of tissue and 32.0 nmol Dye 1/g of tissue, respectively. The “nmol Dye 1/g of tissue, Liver” value in data set [3] (femoral artery, 0.25 h, prep (H), tritium counts) is listed as 5.4 nmol Dye 1/g of tissue; in data set [3] (setting [6]), 9.1 nmol Dye 1/g of tissue; in data set [3] (setting [7]), 17.0 nmol Dye 1/g of tissue; in data set [3] (setting [8]), 3.3 nmol Dye 1/g of tissue; in data set [3] (setting [9]) it was 13.2 nmol Dye 1/g of tissue. In addition, the “nmol Dye 1/g of tissue, Heart” value in data set [3] (setting [6]) is 7.4 nmol Dye 1/g of tissue; in data set [3] (setting [8]) it was 1.1 nmol Dye 1/g of tissue; in data set [3] (setting [9]), 1.3 nmol Dye 1/g of tissue. Moreover, in data set [3] (rat, arterial injection), the “passage of the blood-brain barrier” value is “appears to pass the blood-brain barrier”. Further, the “concentrations of the dye in the tumor mass” value in data set [3] (short time periods following injection) was “reasonably high concentrations”.
For `CC(C)(C)C1=CC(=CC=Cc2cc(C(C)(C)C)[se+]c(C(C)(C)C)c2)C=C(C(C)(C)C)[Se]1` [Dye 2], the “Absorption maximum λmax” value in data set [1] (H2O) came out at 730 nm. Besides, the “Quantum efficiency” value in data set [2] (air-saturated solution) is 0.014.
With `CC(C)(C)C1=CC(=CC=Cc2cc(C(C)(C)C)[s+]c(C(C)(C)C)c2)C=C(C(C)(C)C)[Te]1` [Dye 3], in data set [1] (H2O), the “Absorption maximum λmax” value was determined as 745 nm. For the same molecule, the “Quantum efficiency” value in data set [2] (air-saturated solution) was found to be 0.07.
Consider `CC(C)(C)C1=CC(=CC=Cc2cc(C(C)(C)C)[o+]c(C(C)(C)C)c2)C=C(C(C)(C)C)[Te]1.[O-][Cl+3]([O-])([O-])[O-]` [Dye 5, 2,6-Di-t-butyl-4-[3-(2,6-di-t-butyl-4H-telluropyran-4-ylidene)-1-propen-1-yl]pyrylium perchlorate], for which, in data set [4] (2 h), the “nmol Dye 1/g of tissue, Heart” value is reported as 1.3 nmol Dye 1/g of tissue; the “nmol Dye 1/g of tissue, Kidney” value is reported as ≤ 0.5 nmol Dye 1/g of tissue; the “nmol Dye 1/g of tissue, Liver” value is reported as 4.1 nmol Dye 1/g of tissue; the “nmol Dye 1/g of tissue, Tumor” value is on record as 5.5 nmol Dye 1/g of tissue. Moreover, in data set [4] (4 h), the “nmol Dye 1/g of tissue, Heart” value is on record as ≤ 0.5 nmol Dye 1/g of tissue; the “nmol Dye 1/g of tissue, Kidney” value was ≤ 0.5 nmol Dye 1/g of tissue; the “nmol Dye 1/g of tissue, Liver” value is recorded as 3.8 nmol Dye 1/g of tissue; the “nmol Dye 1/g of tissue, Tumor” value is 3.3 nmol Dye 1/g of tissue.
On to `CC(C=Cc1cc(C(C)(C)C)[te+]c(C(C)(C)C)c1)=C1C=C(C(C)(C)C)[Se]C(C(C)(C)C)=C1` [Dye 6], for which, in data set [1] (CH2Cl2), the “Absorption maximum λmax” value was 803 nm. The “Quantum efficiency” value in data set [2] (air-saturated solution) worked out at 0.01.
Turning to `CC(=CC(C)=C1C=C(C(C)(C)C)[Se]C(C(C)(C)C)=C1)c1cc(C(C)(C)C)[se+]c(C(C)(C)C)c1` [Dye 7], the “Absorption maximum λmax” value in data set [1] (MeOH) was 790 nm. Moreover, the “Quantum efficiency” value in data set [2] (air-saturated solution) came out at 0.005.
As to `CC(C)(C)C1=CC(=CC=Cc2cc(C(C)(C)C)[s+]c(C(C)(C)C)c2)C=C(C(C)(C)C)[Se]1` [Dye 8], in data set [1] (H2O), the “Absorption maximum λmax” value is listed as 700 nm. For the same molecule, the “Quantum efficiency” value in data set [2] (air-saturated solution) turned out to be 0.008.
`C(=C1C=C(c2ccccc2)[Te]C(c2ccccc2)=C1)c1cc(-c2ccccc2)[te+]c(-c2ccccc2)c1` [Dye 10]: the “Absorption maximum λmax” value in data set [1] (MeOH) turned out to be 760 nm. The “Quantum efficiency” value in data set [2] (air-saturated solution) is 0.08.
For the molecule `CC(=C1C=C(c2ccccc2)[Te]C(c2ccccc2)=C1)c1cc(-c2ccccc2)[te+]c(-c2ccccc2)c1` [Dye 11], the “Absorption maximum λmax” value in data set [1] (CH2Cl2) is reported as 843 nm. Moreover, the “Quantum efficiency” value in data set [2] (air-saturated solution) is 0.01.
For the molecule `CC(=C1C=C(C(C)(C)C)[Te]C(C(C)(C)C)=C1)c1cc(C(C)(C)C)[te+]c(C(C)(C)C)c1` [Dye 13], in data set [1] (H2O), the “Absorption maximum λmax” value worked out at 790 nm. Moreover, in data set [2] (air-saturated solution), the “Quantum efficiency” value is 0.005.
As for `CC(C)(C)C1=CC(=C(C#N)C=Cc2cc(C(C)(C)C)[te+]c(C(C)(C)C)c2)C=C(C(C)(C)C)[Te]1` [Dye 15], in data set [1] (MeOH), the “Absorption maximum λmax” value is 790 nm. Moreover, the “Quantum efficiency” value in data set [2] (air-saturated solution) is 0.08.
As to `CC(C)(C)C1=CC(=Cc2cc(CCCCO)[te+]c(CCCCO)c2)C=C(C(C)(C)C)[Se]1` [Dye 18], the “Absorption maximum λmax” value in data set [1] (MeOH) is 690 nm. In addition, the “Quantum efficiency” value in data set [2] (estimated) is listed as at least 0.005.
